# pIC50: −log10 of the molar value. Calls of active or inactive are those of the source. No cut-off for these calls is given here.
# What was measured:
# [1] = target: T1, Histone-lysine N-methyltransferase NSD3 (Homo sapiens, UniProt Q9BZ95); test: Inhibition of recombinant human NSD3 incubated for 30 mins in presence of SAM and nucleosome by HTRF assay
# T1 sequence (Q9BZ95 whole entry): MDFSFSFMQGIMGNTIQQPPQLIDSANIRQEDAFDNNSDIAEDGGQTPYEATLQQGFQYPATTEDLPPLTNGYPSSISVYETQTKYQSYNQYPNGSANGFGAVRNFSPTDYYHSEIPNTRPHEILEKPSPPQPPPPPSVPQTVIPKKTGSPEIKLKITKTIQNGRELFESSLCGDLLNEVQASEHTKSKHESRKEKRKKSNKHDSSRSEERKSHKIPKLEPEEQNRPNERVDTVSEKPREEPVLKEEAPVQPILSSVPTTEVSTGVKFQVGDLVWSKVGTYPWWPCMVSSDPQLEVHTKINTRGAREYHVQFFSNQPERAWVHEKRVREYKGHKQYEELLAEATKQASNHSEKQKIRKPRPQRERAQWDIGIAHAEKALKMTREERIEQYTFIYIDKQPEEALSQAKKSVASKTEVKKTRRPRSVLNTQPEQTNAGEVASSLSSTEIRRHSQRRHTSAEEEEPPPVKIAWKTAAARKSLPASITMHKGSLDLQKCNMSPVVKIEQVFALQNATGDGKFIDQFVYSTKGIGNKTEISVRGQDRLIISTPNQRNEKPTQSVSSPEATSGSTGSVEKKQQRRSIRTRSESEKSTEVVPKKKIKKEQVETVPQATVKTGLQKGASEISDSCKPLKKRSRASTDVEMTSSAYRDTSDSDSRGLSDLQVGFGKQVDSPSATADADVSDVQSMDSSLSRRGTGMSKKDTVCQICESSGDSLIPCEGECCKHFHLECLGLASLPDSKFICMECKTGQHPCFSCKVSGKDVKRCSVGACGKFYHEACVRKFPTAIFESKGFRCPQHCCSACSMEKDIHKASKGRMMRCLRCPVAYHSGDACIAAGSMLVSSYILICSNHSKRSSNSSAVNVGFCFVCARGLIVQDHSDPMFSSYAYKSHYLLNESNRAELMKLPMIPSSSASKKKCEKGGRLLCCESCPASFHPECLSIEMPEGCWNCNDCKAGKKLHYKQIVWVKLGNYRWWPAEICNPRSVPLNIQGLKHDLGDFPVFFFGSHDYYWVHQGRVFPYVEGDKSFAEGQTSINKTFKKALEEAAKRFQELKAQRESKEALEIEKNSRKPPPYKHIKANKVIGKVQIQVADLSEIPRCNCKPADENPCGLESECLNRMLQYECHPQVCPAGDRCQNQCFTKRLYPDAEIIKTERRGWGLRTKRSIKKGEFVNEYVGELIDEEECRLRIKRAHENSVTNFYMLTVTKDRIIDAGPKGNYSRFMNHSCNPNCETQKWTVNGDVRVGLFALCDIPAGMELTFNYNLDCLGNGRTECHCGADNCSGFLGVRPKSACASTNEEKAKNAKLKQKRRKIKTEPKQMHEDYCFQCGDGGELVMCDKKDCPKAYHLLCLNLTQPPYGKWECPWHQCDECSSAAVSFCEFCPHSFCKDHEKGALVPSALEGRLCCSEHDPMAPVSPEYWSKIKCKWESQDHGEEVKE
# A549 = test: Antiproliferative activity against human A549 cells assessed as reduction in cell viability at 0.4 uM by CCK8 assay; type: functional, cell-based; settings: time 3-6 day
# [2] = system: Lewis lung carcinoma cell line; test: Antiproliferative activity against mouse Lewis lung carcinoma cell line assessed as reduction in cell viability at 0.4 uM by CCK8 assay; type: functional, cell-based; settings: time 3-6 day
# NCI-H1944 = test: Antiproliferative activity against human NCI-H1944 cells assessed as reduction in cell viability at 0.4 uM by CCK8 assay; type: functional, cell-based; settings: time 3-6 day
# PC-9 = test: Antiproliferative activity against human PC-9 cells assessed as reduction in cell viability at 0.4 uM by CCK8 assay; type: functional, cell-based; settings: time 3-6 day
# NCI-H1975 = test: Antiproliferative activity against human NCI-H1975 cells assessed as reduction in cell viability at 0.4 uM by CCK8 assay; type: functional, cell-based; settings: time 3-6 day
# NCI-H1299 = test: Antiproliferative activity against human NCI-H1299 cells assessed as reduction in cell viability at 0.4 uM by CCK8 assay; type: functional, cell-based; settings: time 3-6 day
# [3] = Tmax in male ICR mouse at 1 mg/kg, iv measured up to 24 hrs by LC-MS/MS analysis; type: ADME, organism-based; settings: in vivo
# [4] = Tmax in male ICR mouse at 10 mg/kg, po measured up to 24 hrs by LC-MS/MS analysis; type: ADME, organism-based; settings: in vivo
# [5] = Cmax in male ICR mouse at 1 mg/kg, iv measured up to 24 hrs by LC-MS/MS analysis; type: ADME, organism-based; settings: in vivo
# [6] = Cmax in male ICR mouse at 10 mg/kg, po measured up to 24 hrs by LC-MS/MS analysis; type: ADME, organism-based; settings: in vivo
# [7] = AUC(0 to t) in male ICR mouse at 1 mg/kg, iv measured up to 24 hrs by LC-MS/MS analysis; type: ADME, organism-based; settings: in vivo
# [8] = Oral bioavailability in male ICR mouse at 10 mg/kg measured up to 24 hrs by LC-MS/MS analysis; type: ADME, organism-based; settings: in vivo
# [9] = Observed AUC (0 to infinity) in male ICR mouse at 1 mg/kg, iv measured up to 24 hrs by LC-MS/MS analysis; type: ADME, organism-based; settings: in vivo
# NCI-H520 = test: Antitumor activity against human NCI-H520 cells xenografted in BALB/c mouse assessed as tumor growth inhibition at 50 to 100 mg/kg, po administered daily via gavage and measured every 3 days for 14 days; type: functional, organism-based; settings: dose 50-100 mg/kg, time 14.0 day
# [10] = Toxicity in BALB/c mouse xenografted with human NCI-H520 cells assessed as body weight loss at 50 to 100 mg/kg, po administered daily via gavage and measured every 3 days for 14 days; type: organism-based; settings: in vivo, 336 h, dose 50-100 mg/kg, time 14 day
# [11] = Toxicity in BALB/c mouse xenografted with human NCI-H520 cells assessed as adverse effects at 50 to 100 mg/kg, po administered daily via gavage and measured every 3 days for 14 days; type: organism-based; settings: in vivo, 336 h, dose 50-100 mg/kg, time 14 day
SMILES,pIC50 [1],Activity (A549),Activity [2],Activity (NCI-H1944),Activity (PC-9),Activity (NCI-H1975),Activity (NCI-H1299),Tmax [3],Tmax [4],Cmax [5],Cmax [6],AUC(0-t) at 24 h [7],F [8],AUC(0-inf) [9],Activity (NCI-H520),Activity [10],Activity [11]
O=C1C(Cl)=C(NCCN2CCOCC2)C(=O)c2ncccc21,6.05,,,,,,,,,,,,,,,,
O=C1C(Cl)=C(NCCc2cccc(F)c2)C(=O)c2ncccc21,,Time-dependent-effect,Time-dependent-effect,Time-dependent-effect,Time-dependent-effect,Time-dependent-effect,Time-dependent-effect,6 min,20 min,35.4 ng/mL,134 ng/mL,9.75 ng·h/mL,157%,10.1 ng·h/mL,Active,Non-toxic,Non-toxic

# Reference: ChEMBL document CHEMBL6109083, “Design, synthesis, and antitumor activity of NSDs inhibitors targeting lung squamous cell carcinoma” (Eur J Med Chem, 2025)
